Where “and” joins values, the source holds several entries; their conditions need not be identical. Identical values can stand only once. Toxic doses and inconclusive results are not listed. No stated cut-off is given here; in the data, active means T/C of 150% or more; inactive means T/C below 125%.
Tested on: L1210 leukemia ip in BDF1 mice, survival T/C
Test: NCI In Vivo Anticancer Drug Screen. Data for tumor model L1210 Leukemia (intraperitoneal) in B6D2F1 (BDF1) mice
Conditions: endpoint: mean survival time, higher = longer survival
In short: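 Tumor cells were implanted, animals were treated, and survival was followed. The result divides the treated measurement by the vehicle-control measurement.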

[1] = dose: 25.0 mg/kg/injection, schedule: Q01DX009 (ip), vehicle: saline
[2] = dose: 100.0 mg/kg/injection, schedule: Q04DX002 (ip), vehicle: Klucel (hydroxypropylcellulose) (HPC)
[3] = dose: 100.0 mg/kg/injection, schedule: Q01DX001 (ip), vehicle: Klucel (hydroxypropylcellulose) (HPC)
[4] = dose: 200.0 mg/kg/injection, schedule: Q01DX001 (ip), vehicle: Klucel (hydroxypropylcellulose) (HPC)
[5] = dose: 400.0 mg/kg/injection, schedule: Q01DX001 (ip), vehicle: Klucel (hydroxypropylcellulose) (HPC)
[6] = dose: 50.0 mg/kg/injection, schedule: Q01DX009 (ip), vehicle: saline with Tween-80
[7] = dose: 50.0 mg/kg/injection, schedule: Q04DX002 (ip), vehicle: saline with Tween-80
[8] = dose: 100.0 mg/kg/injection, schedule: Q04DX002 (ip), vehicle: saline with Tween-80

Measured: T/C

O=C(NCCCCC(NC(=O)OCc1ccccc1)C(=O)NCCCCCCCCCCNC(=O)C(CCCCNC(=O)OCc1ccccc1)NC(=O)OCc1ccccc1)OCc1ccccc1 (stereo not given)
inactive: dose: 10.0 mg/kg/injection, schedule: Q01DX012 (ip), vehicle: saline 94 % of control | dose: 30.0 mg/kg/injection, schedule: Q01DX012 (ip), vehicle: saline 96 % of control | dose: 100.0 mg/kg/injection, schedule: Q01DX012 (ip), vehicle: saline 94 % of control | dose: 300.0 mg/kg/injection, schedule: Q01DX012 (ip), vehicle: saline 88 % of control

O=[N+]([O-])c1ccc(CSC2=NCCN2)cc1
inactive: [1] 96 % of control | dose: 50.0 mg/kg/injection, schedule: Q01DX009 (ip), vehicle: saline 104 % of control | dose: 100.0 mg/kg/injection, schedule: Q01DX009 (ip), vehicle: saline 98 % of control

Cc1c(Cl)c(Cl)cc([N+](=O)[O-])c1Cl
inactive: dose: 66.0 mg/kg/injection, schedule: Q01DX009 (sc), vehicle: olive oil, sesame oil, peanut oil 100 % of control | dose: 100.0 mg/kg/injection, schedule: Q01DX009 (sc), vehicle: olive oil, sesame oil, peanut oil 98 % of control | dose: 100.0 mg/kg/injection, schedule: Q04DX003 (sc), vehicle: olive oil, sesame oil, peanut oil 105 % of control | dose: 150.0 mg/kg/injection, schedule: Q01DX009 (sc), vehicle: olive oil, sesame oil, peanut oil 102 % of control | dose: 200.0 mg/kg/injection, schedule: Q01DX009 (sc), vehicle: olive oil, sesame oil, peanut oil 94 % of control | dose: 200.0 mg/kg/injection, schedule: Q04DX003 (sc), vehicle: olive oil, sesame oil, peanut oil 106 % of control | dose: 400.0 mg/kg/injection, schedule: Q01DX009 (sc), vehicle: olive oil, sesame oil, peanut oil 105 % of control | dose: 400.0 mg/kg/injection, schedule: Q04DX003 (sc), vehicle: olive oil, sesame oil, peanut oil 97 % of control

CC[N+](C)(C)CCOC(=O)C1C2CC3OC(=O)C1C3C2 (stereo not given)
inactive: dose: 100.0 mg/kg/injection, schedule: Q04DX003 (ip), vehicle: saline 97 % of control | dose: 200.0 mg/kg/injection, schedule: Q04DX003 (ip), vehicle: saline 101 % of control

O=C1OC(c2ccc([N+](=O)[O-])cc2)=N/C1=C\c1ccc(Cl)c(Cl)c1
inactive: [2] 108 % of control | dose: 200.0 mg/kg/injection, schedule: Q04DX002 (ip), vehicle: Klucel (hydroxypropylcellulose) (HPC) 97 % of control | dose: 400.0 mg/kg/injection, schedule: Q04DX002 (ip), vehicle: Klucel (hydroxypropylcellulose) (HPC) 101 % of control

O=[N+]([O-])c1ccc(N(CCO)CCO)cc1
inactive: dose: 50.0 mg/kg/injection, schedule: Q01DX001 (ip), vehicle: saline 96 % of control | dose: 100.0 mg/kg/injection, schedule: Q01DX001 (ip), vehicle: saline 100 % of control | dose: 200.0 mg/kg/injection, schedule: Q01DX001 (ip), vehicle: saline 100 % of control | dose: 400.0 mg/kg/injection, schedule: Q01DX001 (ip), vehicle: saline 96 % of control

COC(OC)c1nc(N)[nH]c(=O)c1Cc1ccc([N+](=O)[O-])cc1
inactive: [3] 110 % of control | [4] 102 % of control | [5] 96 % of control

COc1ccc(CN(CCN(C)C)c2ccccn2)cc1
inactive: dose: 12.5 mg/kg/injection, schedule: Q01DX009 (ip), vehicle: Klucel (hydroxypropylcellulose) (HPC) 97 % of control | dose: 12.5 mg/kg/injection, schedule: Q04DX003 (ip), vehicle: Klucel (hydroxypropylcellulose) (HPC) 94 % of control | dose: 25.0 mg/kg/injection, schedule: Q01DX009 (ip), vehicle: Klucel (hydroxypropylcellulose) (HPC) 94 % of control | dose: 25.0 mg/kg/injection, schedule: Q04DX003 (ip), vehicle: Klucel (hydroxypropylcellulose) (HPC) 93 % of control | dose: 50.0 mg/kg/injection, schedule: Q01DX009 (ip), vehicle: Klucel (hydroxypropylcellulose) (HPC) 93 % of control | dose: 50.0 mg/kg/injection, schedule: Q04DX003 (ip), vehicle: Klucel (hydroxypropylcellulose) (HPC) 93 % of control and 94 % of control

O=C(SCc1ccccc1)c1cccnc1
inactive: dose: 100.0 mg/kg/injection, schedule: Q04DX003 (ip), vehicle: saline with Tween-80 99 % of control

COc1ccc(C(=O)/C=C/c2cccc([N+](=O)[O-])c2)cc1
inactive: [6] 97 % of control | dose: 100.0 mg/kg/injection, schedule: Q01DX009 (ip), vehicle: saline with Tween-80 97 % of control | dose: 200.0 mg/kg/injection, schedule: Q01DX009 (ip), vehicle: saline with Tween-80 97 % of control

OC1CC23C=CC2(C1)C1(CC3)OCCO1 (stereo not given)
inactive: [7] 92 % of control | [8] 92 % of control | dose: 200.0 mg/kg/injection, schedule: Q04DX002 (ip), vehicle: saline with Tween-80 95 % of control | dose: 400.0 mg/kg/injection, schedule: Q04DX002 (ip), vehicle: saline with Tween-80 98 % of control

CCCSc1ccc2c3c(cccc13)C(=O)OC2=O
inactive: dose: 100.0 mg/kg/injection, schedule: Q01DX009 (ip), vehicle: Klucel (hydroxypropylcellulose) (HPC) 101 % of control | dose: 200.0 mg/kg/injection, schedule: Q01DX009 (ip), vehicle: Klucel (hydroxypropylcellulose) (HPC) 98 % of control

COc1ccc(C(O)C(C)C(O)(C(F)(F)F)C(F)(F)F)cc1 (stereo not given)
inactive: [3] 98 % of control | dose: 100.0 mg/kg/injection, schedule: Q04DX003 (ip), vehicle: Klucel (hydroxypropylcellulose) (HPC) 96 % of control | [4] 101 % of control | dose: 200.0 mg/kg/injection, schedule: Q04DX003 (ip), vehicle: Klucel (hydroxypropylcellulose) (HPC) 98 % of control | [5] 111 % of control | dose: 400.0 mg/kg/injection, schedule: Q04DX003 (ip), vehicle: Klucel (hydroxypropylcellulose) (HPC) 93 % of control

CCOC(=O)CSc1ccc2c3c(cccc13)C(=O)OC2=O
inactive: dose: 20.0 mg/kg/injection, schedule: Q01DX009 (ip), vehicle: other 104 % of control | dose: 40.0 mg/kg/injection, schedule: Q01DX009 (ip), vehicle: other 98 % of control | dose: 80.0 mg/kg/injection, schedule: Q01DX009 (ip), vehicle: other 91 % of control | dose: 87.5 mg/kg/injection, schedule: Q01DX009 (ip), vehicle: other 92 % of control

CN1CCN(c2ccc([N+](=O)[O-])c3no[n+]([O-])c23)CC1
inactive: dose: 0.2 mg/kg/injection, schedule: Q03HX024 (ip), vehicle: saline with Tween-80 104 % of control | dose: 0.39 mg/kg/injection, schedule: Q03HX024 (ip), vehicle: saline with Tween-80 100 % of control | dose: 0.78 mg/kg/injection, schedule: Q03HX024 (ip), vehicle: saline with Tween-80 111 % of control | dose: 1.56 mg/kg/injection, schedule: Q03HX024 (ip), vehicle: saline with Tween-80 105 % of control | dose: 3.13 mg/kg/injection, schedule: Q03HX024 (ip), vehicle: saline with Tween-80 109 % of control | dose: 7.5 mg/kg/injection, schedule: Q01DX009 (ip), vehicle: saline 108 % of control and 115 % of control | dose: 10.0 mg/kg/injection, schedule: Q01DX009 (ip), vehicle: saline 118 % of control | dose: 15.0 mg/kg/injection, schedule: Q01DX009 (ip), vehicle: saline 115 % of control and 124 % of control | [1] 117 % of control | dose: 25.0 mg/kg/injection, schedule: Q04DX002 (ip), vehicle: Klucel (hydroxypropylcellulose) (HPC) 104 % of control | dose: 50.0 mg/kg/injection, schedule: Q04DX002 (ip), vehicle: Klucel (hydroxypropylcellulose) (HPC) 104 % of control | [2] 113 % of control

S=c1nccc[nH]1
inactive: dose: 25.0 mg/kg/injection, schedule: Q01DX009 (ip), vehicle: saline with Tween-80 103 % of control | dose: 25.0 mg/kg/injection, schedule: Q04DX002 (ip), vehicle: saline with Tween-80 93 % of control | [6] 105 % of control | [7] 107 % of control | [8] 96 % of control

Reference: PubChem BioAssay AID248 (DTP/NCI, 2004)
